IC50 data for eleven compounds are collected here from patent US5541193A, “Heterocycle-containing macrocyclic immunomodulators” (Abbott Laboratories, priority 1995, dated 1996).

The term IC50 denotes the concentration that inhibits the measured activity by half. Low values mean greater potency, high ones weaker potency.

The experiment deals with human mixed lymphocyte reaction (MLR). Nature of the experiment: human mixed lymphocyte reaction (MLR) assay, immunosuppressant activity. The following applies: Table 1. The experiment is classed as cell-based. As to the method:
[…] Assay of Biological Activity
The immunosuppressant activity of the compounds of the present invention was determined using the human mixed lymphocyte reaction (MLR) assay described by Kino, T. et al. in Transplantation Proceedings, XIX(5):36-39,Suppl. 6 (1987).
For the compound `CC[C@@H]1/C=C(\C)C[C@H](C)C[C@H](OC)[C@H]2O[C@@](O)(C(=O)C(=O)N3CCCC[C@H]3C(=O)O[C@H](/C(C)=C/[C@@H]3CCC(OC)C(n4cnc([N+](=O)[O-])n4)C3)[C@H](C)[C@@H](O)CC1=O)[C@H](C)C[C@@H]2OC` (some centres unmarked) [Example 16], the half-maximal inhibitory concentration (IC50) was 1 nM.
Take `CC[C@@H]1/C=C(\C)C[C@H](C)C[C@H](OC)[C@H]2O[C@@](O)(C(=O)C(=O)N3CCCC[C@H]3C(=O)O[C@H](/C(C)=C/[C@@H]3CCC(OC)C(n4nnc5ccccc54)C3)[C@H](C)[C@@H](O)CC1=O)[C@H](C)C[C@@H]2OC` (some centres unmarked) [Example 8]: the IC50 is 1.76 nM.
Then `CC[C@@H]1/C=C(\C)C[C@H](C)C[C@H](OC)[C@H]2O[C@@](O)(C(=O)C(=O)N3CCCC[C@H]3C(=O)O[C@H](/C(C)=C/[C@@H]3CC[C@H](n4ccnn4)[C@H](OC)C3)[C@H](C)[C@@H](O)CC1=O)[C@H](C)C[C@@H]2OC` [Example 5], with 2.48 nM; and `CC[C@@H]1/C=C(\C)C[C@H](C)C[C@H](OC)[C@H]2O[C@@](O)(C(=O)C(=O)N3CCCC[C@H]3C(=O)O[C@H](/C(C)=C/[C@@H]3CCC(OC)C(n4ccnn4)C3)[C@H](C)[C@@H](O)CC1=O)[C@H](C)C[C@@H]2OC` (some centres unmarked) [Example 6], with 0.44 nM.
Then `CC[C@@H]1/C=C(\C)C[C@H](C)C[C@H](OC)[C@H]2O[C@@](O)(C(=O)C(=O)N3CCCC[C@H]3C(=O)O[C@H](/C(C)=C/[C@@H]3CC[C@H](n4nnc5ccc([N+](=O)[O-])cc54)[C@H](OC)C3)[C@H](C)[C@@H](O)CC1=O)[C@H](C)C[C@@H]2OC` [Example 10], with 0.22 nM; and `CC[C@@H]1/C=C(\C)C[C@H](C)C[C@H](OC)[C@H]2O[C@@](O)(C(=O)C(=O)N3CCCC[C@H]3C(=O)O[C@H](/C(C)=C/[C@@H]3CC[C@H](n4cnc([N+](=O)[O-])n4)[C@H](OC)C3)[C@H](C)[C@@H](O)CC1=O)[C@H](C)C[C@@H]2OC` [Example 15], with 0.04 nM; and `CC[C@@H]1/C=C(\C)C[C@H](C)C[C@H](OC)[C@H]2O[C@@](O)(C(=O)C(=O)N3CCCC[C@H]3C(=O)O[C@H](/C(C)=C/[C@@H]3CC[C@H](n4cncn4)[C@H](OC)C3)[C@H](C)[C@@H](O)CC1=O)[C@H](C)C[C@@H]2OC` [Example 13], with 0.62 nM.
Compound `CC[C@@H]1/C=C(\C)C[C@H](C)C[C@H](OC)[C@H]2O[C@@](O)(C(=O)C(=O)N3CCCC[C@H]3C(=O)O[C@H](/C(C)=C/[C@@H]3CC[C@H](n4nnc5cc([N+](=O)[O-])ccc54)[C@H](OC)C3)[C@H](C)[C@@H](O)CC1=O)[C@H](C)C[C@@H]2OC` [Example 9] displayed an IC50 of 0.23 nM. Against the preceding compound, the IC50 is about 2.7-fold lower.
As for `CC[C@@H]1/C=C(\C)C[C@H](C)C[C@H](OC)[C@H]2O[C@@](O)(C(=O)C(=O)N3CCCC[C@H]3C(=O)O[C@H](/C(C)=C/[C@@H]3CC[C@H](n4nnc5ccccc54)[C@H](OC)C3)[C@H](C)[C@@H](O)CC1=O)[C@H](C)C[C@@H]2OC` [Example 7], the figure is 0.21 nM; as for `CC[C@@H]1/C=C(\C)C[C@H](C)C[C@H](OC)[C@H]2O[C@@](O)(C(=O)C(=O)N3CCCC[C@H]3C(=O)O[C@H](/C(C)=C/[C@@H]3CCC(OC)C(n4nnc5cc([N+](=O)[O-])ccc54)C3)[C@H](C)[C@@H](O)CC1=O)[C@H](C)C[C@@H]2OC` (some centres unmarked) [Example 11], 1.56 nM; as for `CC[C@@H]1/C=C(\C)C[C@H](C)C[C@H](OC)[C@H]2O[C@@](O)(C(=O)C(=O)N3CCCC[C@H]3C(=O)O[C@H](/C(C)=C/[C@@H]3CCC(OC)C(n4nnc5ccc([N+](=O)[O-])cc54)C3)[C@H](C)[C@@H](O)CC1=O)[C@H](C)C[C@@H]2OC` (some centres unmarked) [Example 12], 0.94 nM.
